Data from ChEMBL document CHEMBL4627246, “Pyroglutamide-Based P2X7 Receptor Antagonists Targeting Inflammatory Bowel Disease” (J Med Chem, 2020).

What follows are molecules tested on HOP-92 (assay: Cytotoxicity against human HOP92 cells assessed as effect on cell growth at 10 uM incubated for 48 hrs by sulforhodamine B assay). Conditions: hop-92, 48 h.
Assay type: cell-based
In the case of O=C(NCc1ccc(Cl)cc1Cl)[C@@H]1CCC(=O)N1c1nccs1, the Activity is reported as “Non-Toxic”. With Cc1ccc(NC(=O)[C@@H]2CCC(=O)N2c2ccccc2)cc1 the Activity was “Non-Toxic”. With CN1C(=O)CC[C@H]1C(=O)NCc1cc(C(F)(F)F)ccc1Cl the Activity was “Non-Toxic”. In the case of O=C(NCc1ccc(Cl)cc1Cl)[C@@H]1CCC(=O)N1Cc1ccc(Cl)cc1, the Activity is reported as “Non-Toxic”.

Each molecule was assayed on NCI-H23 (assay: Cytotoxicity against human NCI-H23 cells assessed as effect on cell growth at 10 uM incubated for 48 hrs by sulforhodamine B assay). Conditions: nci-h23, 48 h.
Assay type: cell-based
With O=C(NCc1ccc(Cl)cc1Cl)[C@@H]1CCC(=O)N1c1nccs1 the Activity was “Non-Toxic”. Cc1ccc(NC(=O)[C@@H]2CCC(=O)N2c2ccccc2)cc1 was tested, and the Activity was “Non-Toxic”. With CN1C(=O)CC[C@H]1C(=O)NCc1cc(C(F)(F)F)ccc1Cl the Activity was “Non-Toxic”. For O=C(NCc1ccc(Cl)cc1Cl)[C@@H]1CCC(=O)N1Cc1ccc(Cl)cc1, the Activity was “Non-Toxic”.

Each molecule was assayed on NCI-H322M (assay: Cytotoxicity against human NCI-H322M cells assessed as effect on cell growth at 10 uM incubated for 48 hrs by sulforhodamine B assay). Conditions: not given.
Assay type: cell-based
For O=C(NCc1ccc(Cl)cc1Cl)[C@@H]1CCC(=O)N1c1nccs1, the Activity was “Non-Toxic”. For Cc1ccc(NC(=O)[C@@H]2CCC(=O)N2c2ccccc2)cc1, the Activity was “Non-Toxic”. With CN1C(=O)CC[C@H]1C(=O)NCc1cc(C(F)(F)F)ccc1Cl the Activity was “Non-Toxic”. In the case of O=C(NCc1ccc(Cl)cc1Cl)[C@@H]1CCC(=O)N1Cc1ccc(Cl)cc1, the Activity is reported as “Non-Toxic”.

The molecules below were run on NCI-H522 (assay: Cytotoxicity against human NCI-H522 cells assessed as effect on cell growth at 10 uM incubated for 48 hrs by sulforhodamine B assay). Conditions: nci-h522, 48 h.
Assay type: cell-based
In the case of O=C(NCc1ccc(Cl)cc1Cl)[C@@H]1CCC(=O)N1c1nccs1, the Activity is reported as “Non-Toxic”. With Cc1ccc(NC(=O)[C@@H]2CCC(=O)N2c2ccccc2)cc1 the Activity was “Non-Toxic”. CN1C(=O)CC[C@H]1C(=O)NCc1cc(C(F)(F)F)ccc1Cl was tested, and the Activity was “Non-Toxic”. With O=C(NCc1ccc(Cl)cc1Cl)[C@@H]1CCC(=O)N1Cc1ccc(Cl)cc1 the Activity was “Non-Toxic”.

Each molecule was assayed on COLO 205 (assay: Cytotoxicity against human COLO205 cells assessed as effect on cell growth at 10 uM incubated for 48 hrs by sulforhodamine B assay). Conditions: colo 205, 48 h.
Assay type: cell-based
For O=C(NCc1ccc(Cl)cc1Cl)[C@@H]1CCC(=O)N1c1nccs1, the Activity was “Non-Toxic”. In the case of Cc1ccc(NC(=O)[C@@H]2CCC(=O)N2c2ccccc2)cc1, the Activity is reported as “Non-Toxic”. With CN1C(=O)CC[C@H]1C(=O)NCc1cc(C(F)(F)F)ccc1Cl the Activity was “Non-Toxic”. For O=C(NCc1ccc(Cl)cc1Cl)[C@@H]1CCC(=O)N1Cc1ccc(Cl)cc1, the Activity was “Non-Toxic”.

The molecules below were run on HCC 2998 (assay: Cytotoxicity against human HCC2998 cells assessed as effect on cell growth at 10 uM incubated for 48 hrs by sulforhodamine B assay). Conditions: hcc 2998, 48 h.
Assay type: cell-based
For O=C(NCc1ccc(Cl)cc1Cl)[C@@H]1CCC(=O)N1c1nccs1, the Activity was “Non-Toxic”. In the case of Cc1ccc(NC(=O)[C@@H]2CCC(=O)N2c2ccccc2)cc1, the Activity is reported as “Non-Toxic”. CN1C(=O)CC[C@H]1C(=O)NCc1cc(C(F)(F)F)ccc1Cl was tested, and the Activity was “Non-Toxic”. In the case of O=C(NCc1ccc(Cl)cc1Cl)[C@@H]1CCC(=O)N1Cc1ccc(Cl)cc1, the Activity is reported as “Non-Toxic”.

The molecules below were run on HCT-116 (assay: Cytotoxicity against human HCT116 cells assessed as effect on cell growth at 10 uM incubated for 48 hrs by sulforhodamine B assay). Conditions: hct-116, 48 h.
Assay type: cell-based
O=C(NCc1ccc(Cl)cc1Cl)[C@@H]1CCC(=O)N1c1nccs1 was tested, and the Activity was “Non-Toxic”. Cc1ccc(NC(=O)[C@@H]2CCC(=O)N2c2ccccc2)cc1 was tested, and the Activity was “Non-Toxic”. CN1C(=O)CC[C@H]1C(=O)NCc1cc(C(F)(F)F)ccc1Cl was tested, and the Activity was “Non-Toxic”. With O=C(NCc1ccc(Cl)cc1Cl)[C@@H]1CCC(=O)N1Cc1ccc(Cl)cc1 the Activity was “Non-Toxic”.

Each molecule was assayed on HT-29 (assay: Cytotoxicity against human HT-29 cells assessed as effect on cell growth at 10 uM incubated for 48 hrs by sulforhodamine B assay). Conditions: ht-29, 48 h.
Assay type: cell-based
With O=C(NCc1ccc(Cl)cc1Cl)[C@@H]1CCC(=O)N1c1nccs1 the Activity was “Non-Toxic”. For Cc1ccc(NC(=O)[C@@H]2CCC(=O)N2c2ccccc2)cc1, the Activity was “Non-Toxic”. With CN1C(=O)CC[C@H]1C(=O)NCc1cc(C(F)(F)F)ccc1Cl the Activity was “Non-Toxic”. O=C(NCc1ccc(Cl)cc1Cl)[C@@H]1CCC(=O)N1Cc1ccc(Cl)cc1 was tested, and the Activity was “Non-Toxic”.

The molecules below were run on SNB-19 (assay: Cytotoxicity against human SNB19 cells assessed as effect on cell growth at 10 uM incubated for 48 hrs by sulforhodamine B assay). Conditions: snb-19, 48 h.
Assay type: cell-based
In the case of O=C(NCc1ccc(Cl)cc1Cl)[C@@H]1CCC(=O)N1c1nccs1, the Activity is reported as “Non-Toxic”. With Cc1ccc(NC(=O)[C@@H]2CCC(=O)N2c2ccccc2)cc1 the Activity was “Non-Toxic”. With CN1C(=O)CC[C@H]1C(=O)NCc1cc(C(F)(F)F)ccc1Cl the Activity was “Non-Toxic”. O=C(NCc1ccc(Cl)cc1Cl)[C@@H]1CCC(=O)N1Cc1ccc(Cl)cc1 was tested, and the Activity was “Non-Toxic”.

These molecules were tested on SNB-75 (assay: Cytotoxicity against human SNB75 cells assessed as effect on cell growth at 10 uM incubated for 48 hrs by sulforhodamine B assay). Conditions: snb-75, 48 h.
Assay type: cell-based
O=C(NCc1ccc(Cl)cc1Cl)[C@@H]1CCC(=O)N1c1nccs1 was tested, and the Activity was “Non-Toxic”. Cc1ccc(NC(=O)[C@@H]2CCC(=O)N2c2ccccc2)cc1 was tested, and the Activity was “Non-Toxic”. In the case of CN1C(=O)CC[C@H]1C(=O)NCc1cc(C(F)(F)F)ccc1Cl, the Activity is reported as “Non-Toxic”. O=C(NCc1ccc(Cl)cc1Cl)[C@@H]1CCC(=O)N1Cc1ccc(Cl)cc1 was tested, and the Activity was “Non-Toxic”.

The molecules below were run on U-251 (assay: Cytotoxicity against human U251 cells assessed as effect on cell growth at 10 uM incubated for 48 hrs by sulforhodamine B assay). Conditions: u-251, 48 h.
Assay type: cell-based
O=C(NCc1ccc(Cl)cc1Cl)[C@@H]1CCC(=O)N1c1nccs1 was tested, and the Activity was “Non-Toxic”. With Cc1ccc(NC(=O)[C@@H]2CCC(=O)N2c2ccccc2)cc1 the Activity was “Non-Toxic”. In the case of CN1C(=O)CC[C@H]1C(=O)NCc1cc(C(F)(F)F)ccc1Cl, the Activity is reported as “Non-Toxic”. O=C(NCc1ccc(Cl)cc1Cl)[C@@H]1CCC(=O)N1Cc1ccc(Cl)cc1 was tested, and the Activity was “Non-Toxic”.

The molecules below were run on Malme-3M (assay: Cytotoxicity against human MALME-3M cells assessed as effect on cell growth at 10 uM incubated for 48 hrs by sulforhodamine B assay). Conditions: not given.
Assay type: cell-based
For O=C(NCc1ccc(Cl)cc1Cl)[C@@H]1CCC(=O)N1c1nccs1, the Activity was “Non-Toxic”. Cc1ccc(NC(=O)[C@@H]2CCC(=O)N2c2ccccc2)cc1 was tested, and the Activity was “Non-Toxic”. In the case of CN1C(=O)CC[C@H]1C(=O)NCc1cc(C(F)(F)F)ccc1Cl, the Activity is reported as “Non-Toxic”. In the case of O=C(NCc1ccc(Cl)cc1Cl)[C@@H]1CCC(=O)N1Cc1ccc(Cl)cc1, the Activity is reported as “Non-Toxic”.

What follows are molecules tested on UACC-62 (assay: Cytotoxicity against human UACC62 cells assessed as effect on cell growth at 10 uM incubated for 48 hrs by sulforhodamine B assay). Conditions: uacc-62, 48 h.
Assay type: cell-based
For O=C(NCc1ccc(Cl)cc1Cl)[C@@H]1CCC(=O)N1c1nccs1, the Activity was “Non-Toxic”. For Cc1ccc(NC(=O)[C@@H]2CCC(=O)N2c2ccccc2)cc1, the Activity was “Non-Toxic”. CN1C(=O)CC[C@H]1C(=O)NCc1cc(C(F)(F)F)ccc1Cl was tested, and the Activity was “Non-Toxic”. O=C(NCc1ccc(Cl)cc1Cl)[C@@H]1CCC(=O)N1Cc1ccc(Cl)cc1 was tested, and the Activity was “Non-Toxic”.

What follows are molecules tested on IGROV-1 (assay: Cytotoxicity against human IGROV1 cells assessed as effect on cell growth at 10 uM incubated for 48 hrs by sulforhodamine B assay). Conditions: igrov-1, 48 h.
Assay type: cell-based
With O=C(NCc1ccc(Cl)cc1Cl)[C@@H]1CCC(=O)N1c1nccs1 the Activity was “Non-Toxic”. In the case of Cc1ccc(NC(=O)[C@@H]2CCC(=O)N2c2ccccc2)cc1, the Activity is reported as “Non-Toxic”. In the case of CN1C(=O)CC[C@H]1C(=O)NCc1cc(C(F)(F)F)ccc1Cl, the Activity is reported as “Non-Toxic”. With O=C(NCc1ccc(Cl)cc1Cl)[C@@H]1CCC(=O)N1Cc1ccc(Cl)cc1 the Activity was “Non-Toxic”.

These molecules were tested on OVCAR-8 (assay: Cytotoxicity against human OVCAR8 cells assessed as effect on cell growth at 10 uM incubated for 48 hrs by sulforhodamine B assay). Conditions: ovcar-8, 48 h.
Assay type: cell-based
For O=C(NCc1ccc(Cl)cc1Cl)[C@@H]1CCC(=O)N1c1nccs1, the Activity was “Non-Toxic”. Cc1ccc(NC(=O)[C@@H]2CCC(=O)N2c2ccccc2)cc1 was tested, and the Activity was “Non-Toxic”. CN1C(=O)CC[C@H]1C(=O)NCc1cc(C(F)(F)F)ccc1Cl was tested, and the Activity was “Non-Toxic”. In the case of O=C(NCc1ccc(Cl)cc1Cl)[C@@H]1CCC(=O)N1Cc1ccc(Cl)cc1, the Activity is reported as “Non-Toxic”.

What follows are molecules tested on NCI/ADR-RES (assay: Cytotoxicity against human NCI/ADR-RES cells assessed as effect on cell growth at 10 uM incubated for 48 hrs by sulforhodamine B assay). Conditions: not given.
Assay type: cell-based
For O=C(NCc1ccc(Cl)cc1Cl)[C@@H]1CCC(=O)N1c1nccs1, the Activity was “Non-Toxic”. In the case of Cc1ccc(NC(=O)[C@@H]2CCC(=O)N2c2ccccc2)cc1, the Activity is reported as “Non-Toxic”. With CN1C(=O)CC[C@H]1C(=O)NCc1cc(C(F)(F)F)ccc1Cl the Activity was “Non-Toxic”. O=C(NCc1ccc(Cl)cc1Cl)[C@@H]1CCC(=O)N1Cc1ccc(Cl)cc1 was tested, and the Activity was “Non-Toxic”.

Each molecule was assayed on TK-10 (assay: Cytotoxicity against human TK10 cells assessed as effect on cell growth at 10 uM incubated for 48 hrs by sulforhodamine B assay). Conditions: tk-10, 48 h.
Assay type: cell-based
In the case of O=C(NCc1ccc(Cl)cc1Cl)[C@@H]1CCC(=O)N1c1nccs1, the Activity is reported as “Non-Toxic”. Cc1ccc(NC(=O)[C@@H]2CCC(=O)N2c2ccccc2)cc1 was tested, and the Activity was “Non-Toxic”. CN1C(=O)CC[C@H]1C(=O)NCc1cc(C(F)(F)F)ccc1Cl was tested, and the Activity was “Non-Toxic”. O=C(NCc1ccc(Cl)cc1Cl)[C@@H]1CCC(=O)N1Cc1ccc(Cl)cc1 was tested, and the Activity was “Non-Toxic”.

The molecules below were run on PC-3 (assay: Cytotoxicity against human PC3 cells assessed as effect on cell growth at 10 uM incubated for 48 hrs by sulforhodamine B assay). Conditions: pc-3, 48 h.
Assay type: cell-based
In the case of O=C(NCc1ccc(Cl)cc1Cl)[C@@H]1CCC(=O)N1c1nccs1, the Activity is reported as “Non-Toxic”. For Cc1ccc(NC(=O)[C@@H]2CCC(=O)N2c2ccccc2)cc1, the Activity was “Non-Toxic”. CN1C(=O)CC[C@H]1C(=O)NCc1cc(C(F)(F)F)ccc1Cl was tested, and the Activity was “Non-Toxic”. O=C(NCc1ccc(Cl)cc1Cl)[C@@H]1CCC(=O)N1Cc1ccc(Cl)cc1 was tested, and the Activity was “Non-Toxic”.

What follows are molecules tested on T47D (assay: Cytotoxicity against human T47D cells assessed as effect on cell growth at 10 uM incubated for 48 hrs by sulforhodamine B assay). Conditions: not given.
Assay type: cell-based
With O=C(NCc1ccc(Cl)cc1Cl)[C@@H]1CCC(=O)N1c1nccs1 the Activity was “Non-Toxic”. For Cc1ccc(NC(=O)[C@@H]2CCC(=O)N2c2ccccc2)cc1, the Activity was “Non-Toxic”. In the case of CN1C(=O)CC[C@H]1C(=O)NCc1cc(C(F)(F)F)ccc1Cl, the Activity is reported as “Non-Toxic”. With O=C(NCc1ccc(Cl)cc1Cl)[C@@H]1CCC(=O)N1Cc1ccc(Cl)cc1 the Activity was “Non-Toxic”.

The molecules below were run on MDA-MB-468 (assay: Cytotoxicity against human MDA-MB-468 cells assessed as effect on cell growth at 10 uM incubated for 48 hrs by sulforhodamine B assay). Conditions: mda-mb-468, 48 h.
Assay type: cell-based
With O=C(NCc1ccc(Cl)cc1Cl)[C@@H]1CCC(=O)N1c1nccs1 the Activity was “Non-Toxic”. With Cc1ccc(NC(=O)[C@@H]2CCC(=O)N2c2ccccc2)cc1 the Activity was “Non-Toxic”. For CN1C(=O)CC[C@H]1C(=O)NCc1cc(C(F)(F)F)ccc1Cl, the Activity was “Non-Toxic”. With O=C(NCc1ccc(Cl)cc1Cl)[C@@H]1CCC(=O)N1Cc1ccc(Cl)cc1 the Activity was “Non-Toxic”.
